Test results from PubChem BioAssay (NCI).
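Following 48 hours of exposure in 96-well plates, responses at five concentrations were used to interpolate endpoints linearly. TGI: concentration producing complete growth inhibition.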

Legend:
Assay in all cases: growth of human tumour cells (NCI), 48 h
[1] = system: LXFL 529 NSCLC
[2] = system: MOLT-4 leukemia
[3] = system: SF-539 CNS
[4] = system: A549 NSCLC
[5] = system: COLO 205 colon
[6] = system: SN12C renal
[7] = system: HOP-92 NSCLC
[8] = system: EKVX NSCLC
[9] = system: HT29 colon
[10] = system: SNB-78 CNS
[11] = system: DMS 273 small cell lung
[12] = system: KM20L2 colon
[13] = system: OVCAR-4 ovarian
[14] = system: OVCAR-8 ovarian
[15] = system: HL-60(TB) leukemia
[16] = system: SNB-19 CNS
[17] = system: HOP-18 NSCLC
[18] = system: HOP-62 NSCLC
[19] = system: SNB-75 CNS
[20] = system: M19-MEL melanoma
[21] = system: U251 CNS
[22] = system: SR leukemia
[23] = system: DMS 114 small cell lung
[24] = system: SK-MEL-28 melanoma
[25] = system: MALME-3M melanoma
[26] = system: 786-0 renal
[27] = system: DLD-1 colon
[28] = system: NCI-H226 lung
[29] = system: K-562 leukemia
[30] = system: SF-295 CNS
[31] = system: CCRF-CEM leukemia
[32] = system: IGROV1 ovarian
[33] = system: NCI-H23 lung
[34] = system: HCT-15 colon
[35] = system: UO-31 renal
[36] = system: RXF 393 renal
[37] = system: XF 498 CNS
[38] = system: NCI-H522 lung
[39] = system: A498 renal
[40] = system: SF-268 CNS
[41] = system: HCC-2998 colon
[42] = system: SK-MEL-5 melanoma
[43] = system: ACHN renal
[44] = system: HCT-116 colon
[45] = system: SK-OV-3 ovarian
[46] = system: UACC-62 melanoma
[47] = system: M14 melanoma
[48] = system: UACC-257 melanoma
[49] = system: RPMI-8226 leukemia
[50] = system: SW-620 colon
[51] = system: LOX IMVI melanoma
[52] = system: NCI-H460 lung
[53] = system: KM12 colon
[54] = system: OVCAR-5 ovarian
[55] = system: OVCAR-3 ovarian
[56] = system: SK-MEL-2 melanoma
[57] = system: TK-10 renal
[58] = system: CAKI-1 renal

CCOc1ccc(/C=C(\Cl)c2ccc(OC)c(OC)c2)cc1
TGI [1]: > 100 µM
TGI [2]: > 100 µM
TGI [3]: > 100 µM
TGI [4]: > 100 µM
TGI [5]: > 100 µM
TGI [6]: > 100 µM
TGI [7]: > 100 µM
TGI [8]: > 100 µM
TGI [9]: 40.9 µM
TGI [10]: > 100 µM
TGI [11]: > 100 µM
TGI [12]: 40.1 µM
TGI [13]: > 100 µM
TGI [14]: > 100 µM
TGI [15]: > 100 µM
TGI [16]: > 100 µM
TGI [17]: > 100 µM
TGI [18]: > 100 µM
TGI [19]: > 100 µM
TGI [20]: > 100 µM
TGI [21]: > 100 µM
TGI [22]: 91.4 µM
TGI [23]: > 100 µM
TGI [24]: > 100 µM
TGI [25]: > 100 µM
TGI [26]: > 100 µM
TGI [27]: > 100 µM
TGI [28]: 74.8 µM
TGI [29]: > 100 µM
TGI [30]: > 100 µM
TGI [31]: > 100 µM
TGI [32]: > 100 µM
TGI [33]: > 100 µM
TGI [34]: > 100 µM
TGI [35]: > 100 µM
TGI [36]: 65.5 µM
TGI [37]: > 100 µM
TGI [38]: 74.1 µM
TGI [39]: > 100 µM
TGI [40]: > 100 µM
TGI [41]: > 100 µM
TGI [42]: > 100 µM
TGI [43]: > 100 µM
TGI [44]: > 100 µM
TGI [45]: > 100 µM
TGI [46]: > 100 µM
TGI [47]: 89.6 µM
TGI [48]: 97.9 µM
TGI [49]: > 100 µM
TGI [50]: > 100 µM

COc1c(C(=O)O)oc2c(OC)cccc12
TGI [1]: > 100 µM
TGI [2]: > 100 µM
TGI [3]: > 100 µM
TGI [4]: > 100 µM
TGI [51]: > 100 µM
TGI [5]: > 100 µM
TGI [6]: > 100 µM
TGI [7]: > 100 µM
TGI [8]: > 100 µM
TGI [9]: > 100 µM
TGI [10]: > 100 µM
TGI [11]: > 100 µM
TGI [13]: > 100 µM
TGI [14]: > 100 µM
TGI [15]: > 100 µM
TGI [16]: > 100 µM
TGI [17]: > 100 µM
TGI [18]: > 100 µM
TGI [19]: > 100 µM
TGI [20]: > 100 µM
TGI [52]: > 100 µM
TGI [53]: > 100 µM
TGI [21]: > 100 µM
TGI [22]: > 100 µM
TGI [23]: > 100 µM
TGI [24]: > 100 µM
TGI [25]: > 100 µM
TGI [54]: > 100 µM
TGI [26]: > 100 µM
TGI [28]: > 100 µM
TGI [29]: > 100 µM
TGI [55]: > 100 µM
TGI [30]: > 100 µM
TGI [31]: > 100 µM
TGI [32]: > 100 µM
TGI [33]: > 100 µM
TGI [34]: > 100 µM
TGI [35]: > 100 µM
TGI [56]: > 100 µM
TGI [38]: > 100 µM
TGI [39]: > 100 µM
TGI [40]: > 100 µM
TGI [41]: > 100 µM
TGI [42]: > 100 µM
TGI [43]: > 100 µM
TGI [44]: > 100 µM
TGI [45]: > 100 µM
TGI [46]: > 100 µM
TGI [47]: > 100 µM
TGI [48]: > 100 µM
TGI [49]: > 100 µM
TGI [57]: > 100 µM
TGI [50]: > 100 µM

C(=N\OCc1ccccc1)/c1ncccc1C1OCCO1
TGI [1]: > 100 µM
TGI [58]: > 100 µM
TGI [2]: > 100 µM
TGI [3]: > 100 µM
TGI [4]: > 100 µM
TGI [51]: > 100 µM
TGI [5]: > 100 µM
TGI [6]: > 100 µM
TGI [7]: > 100 µM
TGI [8]: > 100 µM
TGI [9]: > 100 µM
TGI [10]: > 100 µM
TGI [11]: > 100 µM
TGI [12]: > 100 µM
TGI [13]: > 100 µM
TGI [14]: > 100 µM
TGI [15]: > 100 µM
TGI [16]: > 100 µM
TGI [17]: > 100 µM
TGI [18]: > 100 µM
TGI [19]: > 100 µM
TGI [20]: > 100 µM
TGI [52]: > 100 µM
TGI [53]: > 100 µM
TGI [21]: > 100 µM
TGI [22]: > 100 µM
TGI [23]: > 100 µM
TGI [24]: > 100 µM
TGI [25]: > 100 µM
TGI [54]: > 100 µM
TGI [26]: > 100 µM
TGI [27]: > 100 µM
TGI [29]: > 100 µM
TGI [55]: > 100 µM
TGI [30]: > 100 µM
TGI [31]: > 100 µM
TGI [32]: > 100 µM
TGI [33]: > 100 µM
TGI [34]: > 100 µM
TGI [35]: > 100 µM
TGI [56]: > 100 µM
TGI [36]: > 100 µM
TGI [38]: > 100 µM
TGI [40]: > 100 µM
TGI [42]: > 100 µM
TGI [43]: > 100 µM
TGI [44]: > 100 µM
TGI [45]: > 100 µM
TGI [46]: > 100 µM
TGI [47]: > 100 µM
TGI [48]: > 100 µM
TGI [57]: > 100 µM
TGI [50]: > 100 µM

O=C(O)CCCCCOc1cccnc1/C=N/NC1=NCCN1
TGI [1]: > 100 µM
TGI [58]: > 100 µM
TGI [2]: > 100 µM
TGI [3]: > 100 µM
TGI [4]: > 100 µM
TGI [51]: > 100 µM
TGI [5]: > 100 µM
TGI [6]: > 100 µM
TGI [7]: > 100 µM
TGI [8]: > 100 µM
TGI [9]: > 100 µM
TGI [10]: > 100 µM
TGI [11]: > 100 µM
TGI [12]: > 100 µM
TGI [13]: > 100 µM
TGI [14]: > 100 µM
TGI [15]: > 100 µM
TGI [16]: > 100 µM
TGI [17]: > 100 µM
TGI [18]: > 100 µM
TGI [19]: 91.2 µM
TGI [20]: > 100 µM
TGI [52]: > 100 µM
TGI [53]: > 100 µM
TGI [21]: > 100 µM
TGI [22]: > 100 µM
TGI [24]: > 100 µM
TGI [25]: > 100 µM
TGI [54]: > 100 µM
TGI [26]: > 100 µM
TGI [27]: > 100 µM
TGI [28]: > 100 µM
TGI [29]: > 100 µM
TGI [55]: > 100 µM
TGI [30]: > 100 µM
TGI [31]: > 100 µM
TGI [32]: > 100 µM
TGI [33]: > 100 µM
TGI [34]: > 100 µM
TGI [35]: > 100 µM
TGI [56]: > 100 µM
TGI [36]: > 100 µM
TGI [37]: > 100 µM
TGI [38]: > 100 µM
TGI [39]: > 100 µM
TGI [40]: > 100 µM
TGI [41]: > 100 µM
TGI [42]: > 100 µM
TGI [43]: > 100 µM
TGI [44]: > 100 µM
TGI [45]: > 100 µM
TGI [46]: > 100 µM
TGI [47]: > 100 µM
TGI [48]: > 100 µM
TGI [49]: > 100 µM
TGI [57]: > 100 µM
TGI [50]: > 100 µM
